{"source": "patent US7175981B2", "about": "“Method of diagnosing stage or aggressiveness of breast and prostate cancer based on levels of fatty acid binding proteins” (The United States of America as represented by the …, priority 1998, dated 2007)", "key": {"[1]": {"system": "multi-drug resistant MCF-7 ADR human breast cancer cells", "test": "MCF-7 proliferation assay, multi-drug resistant cells (cytofluor)", "format": "cell-based", "conditions": "ADR MCF-7 breast cancer cells", "source_text": "(§1) Tables 1 and 2 show the concentrations required for IC50 inhibition in cultures of wild type and multi-drug resistant MCF-7 human breast cancer cells, respectively. These tables show polyoxotungstates used on MCF-7 proliferation assay."}, "[2]": {"system": "wild type MCF-7 human breast cancer cells", "test": "MCF-7 proliferation assay, wild type cells (cytofluor)", "format": "cell-based", "conditions": "WT MCF-7 breast cancer cells", "source_text": "as §1"}, "E-FABP [3]": {"system": "E-FABP", "test": "RT-PCR of E-FABP expression in MCF-7 cells grown with drug", "format": "cell-based, human", "conditions": "1 uM, 48 hr", "experimental": "(§2) FIGS. 17a and 17b are graphs showing MCF-7 cells grown in the presence of 1 uM HPA-Na for 48 hr and RNA isolated for FABP measurement.\n(§3) For RT-PCR, equal amounts of RNA were used for the reverse transcriptase reaction to make cDNA. The cDNA was then used for the PCR reaction using specific primers for the different fatty acid binding proteins. Also, PCR was performed for genes such as Actin whose level stays generally the same in all the samples. The PCR products were resolved on agarose gel and the picture under UV was saved in the computer as a TIFF file. Using the NIH Image Program 1.6–1, gel optical units were digitized and obtained for each band observed. The values of the FABP PCR fragments were therefore normalized to the Actin values for each sample. In the figures, the data is represented in Optical Density Units versus the FABP and cell type from Breast and Prostate tissues.\n(§4) The RNA was isolated using the Trizol method and RT-PCR analysis of the proteins was performed by using primers specific for each FABP. Equal amount of RNA was used for RT-PCR and PCR master mix was used to avoid any handling errors. […] The method of quantitation of PCR product was as follows: for internal quantitation control actin primers was used, all the gels were scanned in a gel scanner and digitized using the NIH-Image program for quantitation. […]"}, "A-FABP [4]": {"system": "A-FABP", "test": "RT-PCR of A-FABP expression in MCF-7 cells grown with drug", "format": "cell-based, human", "conditions": "1 uM, 48 hr", "experimental": "as §2, §3, §4"}, "[5]": {"test": "Toxicity in mice (body weight, necropsy)", "format": "in vivo", "conditions": "subcutaneously, weekly for 10 weeks", "experimental": "We have identified a class of heteropolyanions that have anticancer activity. This class consists of metal ion derivatives of polyoxotungstate, hereinafter referred to as HPA. These heteropolyanions (HPA) are synthesized by methods outlined in Heteropoly and Isopoly Oxometalates, Michael Thor Pope, Springer Verlag, Berlin, Germany 1983. They are water soluble and stable at room temperature and are effective at very low concentrations (1 μM) in cell cultures. […] Oral and intramuscular administration were also tested. Drugs were dissolved in aqueous solutions for administration. Preferred HPA drugs are HPA-Na and HPA-Sm."}, "E-FABP [6]": {"system": "E-FABP", "test": "RT-PCR of E-FABP expression in LNCAP cells grown with drug", "format": "cell-based, human", "conditions": "1 uM", "experimental": "(§5) FIG. 18 is a graph showing LNCAP cells grown in the presence of 1 uM HPA-Na for 48 hr. At that time, cells were harvested, RNA prepared by the method of TRIZOL, and levels of various FABPs were measured by RT-PCR.\nas §3\nas §4, with “FABP.” for “FABP. Equal amount of RNA was used for RT-PCR and PCR master mix was used to avoid any handling errors.”"}, "I-FABP": {"system": "I-FABP", "test": "RT-PCR of I-FABP expression in LNCAP cells grown with drug", "format": "cell-based, human", "conditions": "in the presence of drug, listed as HPA-Na", "experimental": "as §5, §3\nas §4, with “FABP.” for “FABP. Equal amount of RNA was used for RT-PCR and PCR master mix was used to avoid any handling errors.”"}, "brain-FABP": {"system": "brain-FABP", "test": "RT-PCR of brain-FABP expression in MCF-7 cells grown with drug", "format": "cell-based, human", "conditions": "1 uM, 48 hr", "experimental": "as §2, §3, §4"}, "A-FABP [7]": {"system": "A-FABP", "test": "RT-PCR of A-FABP expression in LNCAP cells grown with drug", "format": "cell-based, human", "conditions": "1 uM, 48 hr, listed as HPA-Na", "experimental": "as §5, §3\nas §4, with “FABP.” for “FABP. Equal amount of RNA was used for RT-PCR and PCR master mix was used to avoid any handling errors.”"}, "LNCAP prostate cells": {"system": "LNCAP prostate cells", "test": "Growth of prostate cancer cells (Cytofluor)", "format": "cell-based, human", "conditions": "prostate (and breast) cancer cells"}, "[8]": {"conditions": "experiment 1, read-out: IC50 (Exp. 1)"}, "[9]": {"conditions": "experiment 2, read-out: IC50 (Exp. #2)"}}, "note": "Entries after “also recorded” stand apart in the source; their conditions may differ. Read-outs that look alike come from different tables or passages of the source.", "data": [{"substance": "K12[TbP5W30O110] · nH2O", "values": [{"measurement": "IC50", "setting": "[1]; [8]", "value": 3.5, "unit": "µM"}, {"measurement": "IC50", "setting": "[1]; [9]", "value": 4.9, "unit": "µM"}, {"measurement": "IC50", "setting": "[2]; [8]", "value": 1, "unit": "µM"}, {"measurement": "IC50", "setting": "[2]; [9]", "value": 8, "unit": "µM"}]}, {"substance": "K12[DyP5W30O110] · nH2O", "values": [{"measurement": "IC50", "setting": "[1]; [8]", "value": 3.8, "unit": "µM"}, {"measurement": "IC50", "setting": "[1]; [9]", "value": 2.3, "unit": "µM"}, {"measurement": "IC50", "setting": "[2]; [8]", "value": 4.3, "unit": "µM"}, {"measurement": "IC50", "setting": "[2]; [9]", "value": 5, "unit": "µM"}]}, {"substance": "K12[TmP5W30O110] · nH2O", "values": [{"measurement": "IC50", "setting": "[1]; [8]", "value": 4, "unit": "µM"}, {"measurement": "IC50", "setting": "[1]; [9]", "value": 6, "unit": "µM"}, {"measurement": "IC50", "setting": "[2]; [8]", "value": 0.25, "unit": "µM"}, {"measurement": "IC50", "setting": "[2]; [9]", "value": 10, "unit": "µM"}]}, {"substance": "K12[LuP5W30O110] · nH2O", "values": [{"measurement": "IC50", "setting": "[1]; [8]", "value": 4.5, "unit": "µM"}, {"measurement": "IC50", "setting": "[1]; [9]", "value": 5.5, "unit": "µM"}, {"measurement": "IC50", "setting": "[2]; [8]", "value": 1, "unit": "µM"}, {"measurement": "IC50", "setting": "[2]; [9]", "value": 5, "unit": "µM"}]}, {"substance": "K12[BiP5W30O110] · nH2O", "values": [{"measurement": "IC50", "setting": "[1]; [8]", "value": 3, "unit": "µM"}, {"measurement": "IC50", "setting": "[1]; [9]", "value": 2.5, "unit": "µM"}, {"measurement": "IC50", "setting": "[2]; [9]", "value": 5, "unit": "µM"}]}, {"substance": "K12.5Na1.5[NaP5W30O110] · nH2O", "values": [{"measurement": "change in level of E-FABP", "setting": "E-FABP [3]", "value": "dramatically increased"}, {"measurement": "change in level of A-FABP", "setting": "A-FABP [4]", "value": "dramatically increased"}, {"measurement": "toxicity in mice (weights, necropsy)", "setting": "[5]", "value": "no indications of toxicity was observed"}, {"measurement": "change in level of E-FABP", "setting": "E-FABP [6]", "value": "altered in a similar manner"}, {"measurement": "change in level of I-FABP", "setting": "I-FABP", "value": "decreasing I-FABP; also recorded: decrease"}, {"measurement": "change in level of brain-FABP", "setting": "brain-FABP", "value": "decreased significantly"}, {"measurement": "IC50", "setting": "[1]; [9]", "value": 2.1, "unit": "µM"}, {"measurement": "IC50", "setting": "[2]; [8]", "value": 3.8, "unit": "µM"}, {"measurement": "IC50", "setting": "[2]; [9]", "value": 3.5, "unit": "µM"}, {"measurement": "change in level of A-FABP", "setting": "A-FABP [7]", "value": "increased the levels of A-FABP in LNCAP to a level similar to the normal values; also recorded: increasing A-FABP; also recorded: markedly elevated"}, {"measurement": "effect on proliferation of cancer cells", "setting": "LNCAP prostate cells", "value": "blocked"}]}, {"substance": "K12[EuP5W30O110] · nH2O", "values": [{"measurement": "IC50", "setting": "[1]; [8]", "value": 0.25, "unit": "µM"}, {"measurement": "IC50", "setting": "[1]; [9]", "value": 3.8, "unit": "µM"}, {"measurement": "IC50", "setting": "[2]; [9]", "value": 4.5, "unit": "µM"}]}, {"substance": "K12[CeP5W30O110] · nH2O", "values": [{"measurement": "IC50", "setting": "[1]; [8]", "value": 3.8, "unit": "µM"}, {"measurement": "IC50", "setting": "[1]; [9]", "value": 3, "unit": "µM"}, {"measurement": "IC50", "setting": "[2]; [8]", "value": 4.3, "unit": "µM"}, {"measurement": "IC50", "setting": "[2]; [9]", "value": 5, "unit": "µM"}]}, {"substance": "K12[ErP5W30O110] · nH2O", "values": [{"measurement": "IC50", "setting": "[1]; [8]", "value": 4, "unit": "µM"}, {"measurement": "IC50", "setting": "[1]; [9]", "value": 1, "unit": "µM"}, {"measurement": "IC50", "setting": "[2]; [8]", "value": 4.3, "unit": "µM"}, {"measurement": "IC50", "setting": "[2]; [9]", "value": 6, "unit": "µM"}]}, {"substance": "K12[GdP5W30O110] · nH2O", "values": [{"measurement": "IC50", "setting": "[1]; [8]", "value": 4.3, "unit": "µM"}, {"measurement": "IC50", "setting": "[1]; [9]", "value": 4.6, "unit": "µM"}, {"measurement": "IC50", "setting": "[2]; [8]", "value": 2, "unit": "µM"}, {"measurement": "IC50", "setting": "[2]; [9]", "value": 8, "unit": "µM"}]}, {"substance": "K12[SmP5W30O110] · nH2O", "values": [{"measurement": "IC50", "setting": "[1]; [8]", "value": 3.8, "unit": "µM"}, {"measurement": "IC50", "setting": "[1]; [9]", "value": 4.1, "unit": "µM"}, {"measurement": "IC50", "setting": "[2]; [8]", "value": 0.5, "unit": "µM"}, {"measurement": "IC50", "setting": "[2]; [9]", "value": 2.5, "unit": "µM"}]}, {"substance": "K12[UP5W30O110] · nH2O", "values": [{"measurement": "IC50", "setting": "[1]; [8]", "value": 5.8, "unit": "µM"}, {"measurement": "IC50", "setting": "[1]; [9]", "value": 4.8, "unit": "µM"}, {"measurement": "IC50", "setting": "[2]; [8]", "value": 1, "unit": "µM"}, {"measurement": "IC50", "setting": "[2]; [9]", "value": 10, "unit": "µM"}]}, {"substance": "K12[HoP5W30O110] · nH2O", "values": [{"measurement": "IC50", "setting": "[1]; [8]", "value": 0.25, "unit": "µM"}, {"measurement": "IC50", "setting": "[1]; [9]", "value": 4, "unit": "µM"}, {"measurement": "IC50", "setting": "[2]; [8]", "value": 3, "unit": "µM"}, {"measurement": "IC50", "setting": "[2]; [9]", "value": 4.5, "unit": "µM"}]}, {"substance": "K12[YbP5W30O110] · nH2O", "values": [{"measurement": "IC50", "setting": "[1]; [8]", "value": 5, "unit": "µM"}, {"measurement": "IC50", "setting": "[1]; [9]", "value": 6.3, "unit": "µM"}, {"measurement": "IC50", "setting": "[2]; [8]", "value": 3.8, "unit": "µM"}, {"measurement": "IC50", "setting": "[2]; [9]", "value": 3.7, "unit": "µM"}]}, {"substance": "K13[CaP5W30O110] · nH2O", "values": [{"measurement": "IC50", "setting": "[1]; [8]", "value": 3.8, "unit": "µM"}, {"measurement": "IC50", "setting": "[1]; [9]", "value": 6.8, "unit": "µM"}, {"measurement": "IC50", "setting": "[2]; [8]", "value": 4.5, "unit": "µM"}, {"measurement": "IC50", "setting": "[2]; [9]", "value": 5, "unit": "µM"}]}]}
